Assay results taken from the NIST ThermoML archive (doi:10.1016/j.jct.2016.03.029).

Assays:
[1] = xn = mol fraction of the nth substance listed; conditions: 100 kPa, Liquid; for speed of sound: Frequency=3 MHz, Sing-around technique in a fixed-path interferometer; for mass density: Vibrating tube method
[2] = refractive index (Na D-line) (dimensionless); xn = mol fraction of the nth substance listed; conditions: 100 kPa, Liquid, Standard Abbe refractometry

CCCC[n+]1ccn(C)c1.O=S(=O)([N-]S(=O)(=O)C(F)(F)F)C(F)(F)F + CN1CCCC1=O
Conditions | mass density, [1] [kg/m3] | refractive index, [2] | speed of sound, [1] [m/s]
298.15 K, x1 = 0.1051 | 1135.14 | 1.45767 | 1448.1
298.15 K, x1 = 0.2088 | 1209.84 | 1.45014 | 1385.2
298.15 K, x1 = 0.2926 | 1255.56 | 1.44539 | 1347.3
298.15 K, x1 = 0.3807 | 1293.95 | 1.44129 | 1317
298.15 K, x1 = 0.5019 | 1335.52 | 1.4368 | 1287.5
298.15 K, x1 = 0.5925 | 1360.41 | 1.43414 | 1271
298.15 K, x1 = 0.6982 | 1384.58 | 1.43169 | 1255.8
298.15 K, x1 = 0.7862 | 1401.58 | 1.42999 | 1245.6
298.15 K, x1 = 0.8895 | 1418.59 | 1.4283 | 1236.2
298.15 K, x1 = 1 | 1433.72 | 1.42671 | 1227.9
303.15 K, x1 = 0.1051 | 1130.6 | 1.45571 | 1430.8
303.15 K, x1 = 0.2088 | 1205.24 | 1.4483 | 1369.4
303.15 K, x1 = 0.2926 | 1250.89 | 1.44359 | 1332.5
303.15 K, x1 = 0.3807 | 1289.25 | 1.43954 | 1303.1
303.15 K, x1 = 0.5019 | 1330.79 | 1.4351 | 1274.3
303.15 K, x1 = 0.5925 | 1355.69 | 1.43244 | 1258.2
303.15 K, x1 = 0.6982 | 1379.86 | 1.43006 | 1243.5
303.15 K, x1 = 0.7862 | 1396.85 | 1.42842 | 1233.5
303.15 K, x1 = 0.8895 | 1413.85 | 1.42678 | 1224.4
303.15 K, x1 = 1 | 1428.92 | 1.42522 | 1216.8
308.15 K, x1 = 0.1051 | 1126.04 | 1.45375 | 1413.4
308.15 K, x1 = 0.2088 | 1200.63 | 1.44645 | 1353.5
308.15 K, x1 = 0.2926 | 1246.22 | 1.44178 | 1317.8
308.15 K, x1 = 0.3807 | 1284.55 | 1.43777 | 1289.2
308.15 K, x1 = 0.5019 | 1326.08 | 1.43337 | 1261.2
308.15 K, x1 = 0.5925 | 1350.96 | 1.43074 | 1245.5
308.15 K, x1 = 0.6982 | 1375.14 | 1.42842 | 1231.1
308.15 K, x1 = 0.7862 | 1392.14 | 1.42683 | 1221.5
308.15 K, x1 = 0.8895 | 1409.13 | 1.42524 | 1212.7
308.15 K, x1 = 1 | 1424.13 | 1.42373 | 1205.8
313.15 K, x1 = 0.1051 | 1121.51 | 1.45177 | 1396.4
313.15 K, x1 = 0.2088 | 1196.02 | 1.44455 | 1337.9
313.15 K, x1 = 0.2926 | 1241.59 | 1.43994 | 1303.1
313.15 K, x1 = 0.3807 | 1279.89 | 1.43596 | 1275.6
313.15 K, x1 = 0.5019 | 1321.38 | 1.43161 | 1248.3
313.15 K, x1 = 0.5925 | 1346.26 | 1.42904 | 1232.9
313.15 K, x1 = 0.6982 | 1370.44 | 1.42676 | 1218.9
313.15 K, x1 = 0.7862 | 1387.44 | 1.42522 | 1209.5
313.15 K, x1 = 0.8895 | 1404.42 | 1.42368 | 1201.2
313.15 K, x1 = 1 | 1419.36 | 1.42225 | 1195
318.15 K, x1 = 0.1051 | 1116.95 | 1.44978 | 1379.1
318.15 K, x1 = 0.2088 | 1191.41 | 1.44265 | 1322.3
318.15 K, x1 = 0.2926 | 1236.95 | 1.43809 | 1288.7
318.15 K, x1 = 0.3807 | 1275.22 | 1.43414 | 1262.1
318.15 K, x1 = 0.5019 | 1316.7 | 1.42983 | 1235.4
318.15 K, x1 = 0.5925 | 1341.57 | 1.42733 | 1220.3
318.15 K, x1 = 0.6982 | 1365.75 | 1.42509 | 1206.6
318.15 K, x1 = 0.7862 | 1382.75 | 1.42359 | 1197.5
318.15 K, x1 = 0.8895 | 1399.75 | 1.4221 | 1189.5
318.15 K, x1 = 1 | 1414.61 | 1.42076 | 1184.2
323.15 K, x1 = 0.1051 | 1112.42 | 1.44778 | 1361.8
323.15 K, x1 = 0.2088 | 1186.82 | 1.4407 | 1306.6
323.15 K, x1 = 0.2926 | 1232.32 | 1.43621 | 1274.3
323.15 K, x1 = 0.3807 | 1270.56 | 1.43228 | 1248.4
323.15 K, x1 = 0.5019 | 1312.04 | 1.42802 | 1222.5
323.15 K, x1 = 0.5925 | 1336.92 | 1.42562 | 1207.8
323.15 K, x1 = 0.6982 | 1361.1 | 1.42341 | 1194.4
323.15 K, x1 = 0.7862 | 1378.1 | 1.42193 | 1185.6
323.15 K, x1 = 0.8895 | 1395.1 | 1.42051 | 1177.9
323.15 K, x1 = 1 | 1409.88 | 1.41923 | 1173.6
